The target in one series is T1, GRPR (Homo sapiens, UniProt P30550).
T1 construct: endogenous in cells; host or cells: PC-3 cells
Briefly: Determination of GRPR affinity (IC50), competition with [D-3-[125I]I-Tyr6]MJ9 on PC-3 cells. It is filed as binding.

Series [1] is described as follows: Plasma studies: metabolic stability in vitro in human plasma (radio RP-HPLC). It is filed as in vitro ADME. The procedure, abridged:
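Radiotracer incubated in human or murine plasma at 37° C. immediately after labeling, for 72±2 h or 6±0.5 h. Proteins precipitated with ice-cold EtOH and MeCN and centrifuged. Supernatant analysed by radio RP-HPLC.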

A short description of series [2]: n-Octanol-PBS distribution coefficient, log D7.4. The series is classed as physicochemical. The following applies: 177Lu-labeled ligand; n-octanol/PBS pH 7.4. As to the method: Approximately 1 MBq of the labeled tracer was dissolved in 1 mL of a 1:1 mixture (v/v) of phosphate buffered saline (PBS, pH=7.4) and n-octanol in an Eppendorf tube. After vigorous mixing of the suspension for 3 min at room temperature, the vial was centrifuged at 9000 rpm for 5 min (Biofuge 15, Heraus Sepatech, Osterode, Germany) and 200 μL aliquots of both layers were measured in a γ-counter. The experiment was repeated at least four times.

In another series the test system is PC-3 cells. Kind of series: Internalization into PC-3 cells. The series is classed as cell-based. The following applies: c = 1 nM, 1 h, 37° C., corrected for non-specific binding (10^-3 M [natLu]RM2). As to the method: For internalization studies, PC-3 cells are harvested 24±2 h before the experiment and seeded in 24-well plates (1.5×10^5 cells/well, 1 mL). Subsequent to the removal of the culture medium, the cells are washed once with 500 μL DMEM/F-12 (5% BSA) and left to equilibrate at 37° C. for at least 15 min in 200 μL DMEM/F-12 (5% BSA). […] Next, 25 μL of the ^125I/^177Lu-labeled GRPR ligand (10 nm) is added and the cells are incubated at 37° C. for 60 min.
The experiment is terminated by placing the 24-well plate on ice for 1 min and consecutive removal of the medium. Each well is rinsed with 300 μL ice-cold PBS and the fractions from these first two steps are combined, representing the amount of free radiolabeled reference. Removal of surface bound activity is accomplished by incubation of the cells with 300 μL of ice-cold Acid Wash solution (0.02 M NaOAc, pH=5.0) for 10 min at room temperature and rinsed again with 300 μL of ice-cold PBS. The internalized activity is determined by incubation of the cells in […] NaOH (1 M) and the combination with the fraction of a subsequent washing step with 300 μL NaOH (1 M).
Each experiment (control and blockade) is performed sixfold. Free, surface bound and internalized activity is quantified in a γ-counter. Data is corrected for non-specific internalization.

Series [3] deals with PC-3 tumor-bearing CB17-SCID mice. Briefly: Biodistribution in PC-3 tumor-bearing CB17-SCID mice. It is filed as in vivo. Conditions: 177Lu-labeled, 24 h p.i. As to the method: (§1) All animal experiments were conducted in accordance with general animal welfare regulations in Germany (German animal protection act, as amended on 18 May 2018, Art. 141 G v. 29.3.2017 | 626, approval no. ROB-55.2-2532.Vet_02-18-109) and the institutional guidelines for the care and use of animals. To establish tumor xenografts, PC-3 cells (5×10^6 cells per 200 μL) were suspended in a 1:1 mixture (v/v) of Dulbecco's modified eagle's medium/Ham's F-12 (DMEM/F-12) with Glutamax-I (1:1) and Cultrex® Basement Membrane Matrix Type 3 (Trevigen Inc., Gaithersburg, MD, USA) and inoculated subcutaneously onto the right shoulder of 6-10 weeks old female CB17-SCID mice (Charles River Laboratories International Inc., Sulzfeld, Germany). Mice were used for experiments when tumor volume was 125-500 mm^3 (2-3 weeks after inoculation).
Approximately 1-5 MBq ([…]) of the radiolabeled GRPR antagonists were injected into the tail vein of PC-3 tumor-bearing mice and sacrificed at 1, 4 or 24 h p.i. (n=4). Selected organs were removed, weighted and measured in a γ-counter (Perkin Elmer, Waltham, MA, USA).

The test system is the same in series [4]. The following applies: mouse, in vivo. As to the method:
as §1
Imaging studies were performed at a MILabs VECTor^4 small-animal SPECT/PET/OI/CT device (MILabs, Utrecht, the Netherlands). Data were reconstructed using the MILabs Rec software (version 10.02) and a pixel-based Similarity-Regulated Ordered Subsets Expectation Maximization (SROSEM) algorithm, followed by data analysis using the PMOD4.0 software (PMOD TECHNOLOGIES LLC, Zurich, Switzerland). […] Static images were recorded within 1 and 28 h p.i. with an acquisition time of 45-60 min using the HE-GP-RM collimator and a step-wise multi-planar bed movement.

SMILES strings stand for the structures. Read-outs that look alike come from different tables or passages of the source.

T1 sequence (P30550 whole entry): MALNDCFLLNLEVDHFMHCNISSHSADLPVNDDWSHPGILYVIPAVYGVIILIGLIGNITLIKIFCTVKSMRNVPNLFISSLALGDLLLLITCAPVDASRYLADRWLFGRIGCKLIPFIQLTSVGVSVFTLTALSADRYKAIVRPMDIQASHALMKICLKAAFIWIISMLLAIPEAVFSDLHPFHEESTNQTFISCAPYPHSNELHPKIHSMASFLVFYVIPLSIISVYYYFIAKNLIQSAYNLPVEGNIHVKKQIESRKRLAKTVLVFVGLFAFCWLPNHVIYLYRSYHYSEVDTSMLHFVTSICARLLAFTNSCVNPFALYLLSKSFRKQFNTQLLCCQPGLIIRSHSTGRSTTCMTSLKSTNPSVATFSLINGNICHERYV

The IC50 is the concentration that inhibits the measured activity by half. In the case of `CC(C)CC(CC(C)C)NC(=O)[C@H](Cc1cnc[nH]1)NC(=O)CNC(=O)[C@@H](NC(=O)[C@H](C)NC(=O)[C@H](Cc1c[nH]c2ccccc12)NC(=O)[C@H](CCC(N)=O)NC(=O)[C@@H](Cc1ccccc1)NC(=O)COCC(=O)Nc1ccc(CNC(=O)CN2CCN(CC(=O)O)CCN(CC(=O)O)CCN(CC(=O)O)CC2)cc1)C(C)C` [NeoBOMB1, reference compound], the IC50 on GRPR (IC50 [nM] ± SD (n = 3), ^177Lu-labeled, Table 1C, GRPR affinity) stood at 4.2 ± 0.1 nM; at GRPR (IC50 ± SD (n = 3), Table 3, [D-3-[125I]I-Tyr6]MJ9 (c = 0.2 nM), 2 h, r.t., HBSS + 1% BSA), 4.22 ± 0.14 nM. For the same compound, in series [1] (Table 1C, 177Lu-labeled, 37° C., 72 ± 2 h, in % (unit assumed)), the “Amount of intact tracer after incubation in human plasma for 72 ± 2 h (n = 2)” value is 60.8 ± 1.2. Also, in series [1] (human plasma, 37° C., 72±2 h), the “amount of intact tracer (in vitro stability), mean ± SD” value is on record as 60.8±1.2%. The “log D7.4 ± SD (n = 8)” value in series [2] was −0.57 ± 0.03. Moreover, the “Specific internalization (mean ± SD, n = 6)” value with PC-3 cells is listed as 13.91 ± 0.64 % of the used activity. In addition, in series [3] (100 pmol, FIG. 11), the pancreas retention result was “high pancreas retention”. In addition, the tumor retention entry in series [3] (100 pmol, FIGS. 11, 18) was “high tumor retention”. Besides, the “tumor-to-background ratios (tumor-to-blood, tumor-to-muscle)” value in series [3] (FIG. 12) is “minor tumor-to-background ratios than the reference”.
As to `CC(C)C[C@H](NC(=O)C[C@H](O)[C@H](CC(C)C)NC(=O)[C@H](Cc1c[nH]cn1)NC(=O)CNC(=O)[C@@H](NC(=O)[C@H](C)NC(=O)[C@](C)(Cc1c[nH]c2ccccc12)NC(=O)[C@H](CCC(N)=O)NC(=O)[C@@H](Cc1ccccc1)NC(=O)CN1CCC(NC(=O)CN2CCN(CC(=O)O)CCN(CC(=O)O)CCN(CC(=O)O)CC2)CC1)C(C)C)C(N)=O` [AMTG], in series [1], the “Amount of intact tracer after incubation in human plasma for 72 ± 2 h (n = 2)” value is 77.6 ± 10.1; the “metabolite, first-eluting peak in chromatogram” value is listed as 2%; the “metabolite, second peak in chromatogram” value is on record as 5%. In addition, the “remaining intact tracer in chromatogram” value in series [1] (human, plasma, 2 h) is 92%. In series [2], the “log D7.4 ± SD (n = 8)” value is −2.28 ± 0.06. Also, the “clearance of background activity in imaging” value in series [4] was “cleared less rapid”.

(Values after patent publication US20250339567A1, “COMPOUNDS WITH IMPROVED PHARMACOKINETICS FOR IMAGING AND THERAPY OF CANCER” (priority 2019, published 2025).)
